Test results published in ChEMBL document CHEMBL4507280 (2021).
The source made the active and inactive calls. The rule behind the calls is not given here.

Assays:
[1] = target: Histamine H4 receptor (Homo sapiens, UniProt Q9H3N8); test: GPCRScan assay: inhibition of H4; set-up: radioligand conc. used [nm] 1.0 – 5.0, parental cells HEK T
[2] = target: T1, Fatty acid synthase (Homo sapiens, UniProt P49327); test: Human FAS enzyme assay
[3] = tested on: Tyrosine-protein kinase ABL1 (Homo sapiens), P00519 [E255K]; settings: Compound concentration 1000.0 nM
[4] = tested on: Tyrosine-protein kinase ABL1 (Homo sapiens), P00519 [F317I]; settings: Compound concentration 1000.0 nM
[5] = tested on: Tyrosine-protein kinase ABL1 (Homo sapiens), P00519 [Y253F]; settings: Compound concentration 1000.0 nM
[6] = target: Activin receptor type-1B (Homo sapiens) (UniProt P36896); settings: Compound concentration 1000.0 nM
[7] = target: Activin receptor type-1-like (Homo sapiens) (UniProt P37023); settings: Compound concentration 1000.0 nM
[8] = target: Calcium/calmodulin-dependent protein kinase type 1B (Homo sapiens) (UniProt Q6P2M8); settings: Compound concentration 1000.0 nM
[9] = target: Calcium/calmodulin-dependent protein kinase type II subunit alpha (Homo sapiens) (UniProt Q9UQM7); settings: Compound concentration 1000.0 nM
[10] = target: Peripheral plasma membrane protein CASK (Homo sapiens) (UniProt O14936); settings: Compound concentration 1000.0 nM
[11] = target: Death-associated protein kinase 2 (Homo sapiens) (UniProt Q9UIK4); settings: Compound concentration 1000.0 nM
[12] = target: Serine/threonine-protein kinase 17A (Homo sapiens) (UniProt Q9UEE5); settings: Compound concentration 1000.0 nM
[13] = target: Dual specificity tyrosine-phosphorylation-regulated kinase 2 (Homo sapiens) (UniProt Q92630); settings: Compound concentration 1000.0 nM
[14] = target: Ephrin type-B receptor 2 (Homo sapiens) (UniProt P29323); settings: Compound concentration 1000.0 nM
[15] = tested on: Receptor-type tyrosine-protein kinase FLT3 (Homo sapiens), P36888 [N841I]; settings: Compound concentration 1000.0 nM
[16] = tested on: eIF-2-alpha kinase GCN2 (Homo sapiens), Q9P2K8 [S808G]; settings: Compound concentration 1000.0 nM
[17] = target: Glycogen synthase kinase-3 beta (Homo sapiens) (UniProt P49841); settings: Compound concentration 1000.0 nM
[18] = target: Leukocyte tyrosine kinase receptor (Homo sapiens) (UniProt P29376); settings: Compound concentration 1000.0 nM
[19] = target: Dual specificity mitogen-activated protein kinase kinase 2 (Homo sapiens) (UniProt P36507); settings: Compound concentration 1000.0 nM
[20] = target: Serine/threonine-protein kinase mTOR (Homo sapiens) (UniProt P42345); settings: Compound concentration 1000.0 nM
[21] = target: Serine/threonine-protein kinase Nek6 (Homo sapiens) (UniProt Q9HC98); settings: Compound concentration 1000.0 nM
[22] = target: Serine/threonine-protein kinase NIM1 (Homo sapiens) (UniProt Q8IY84); settings: Compound concentration 1000.0 nM
[23] = target: Phosphorylase b kinase gamma catalytic chain, skeletal muscle/heart isoform (Homo sapiens) (UniProt Q16816); settings: Compound concentration 1000.0 nM
[24] = target: Protein kinase C eta type (Homo sapiens) (UniProt P24723); settings: Compound concentration 1000.0 nM
[25] = target: Ribosomal protein S6 kinase alpha-5 (Homo sapiens) (UniProt O75582); settings: Compound concentration 1000.0 nM
[26] = target: Ribosomal protein S6 kinase alpha-6 (Homo sapiens) (UniProt Q9UK32); settings: Compound concentration 1000.0 nM
[27] = target: Uncharacterized serine/threonine-protein kinase SBK3 (Homo sapiens) (UniProt P0C264); settings: Compound concentration 1000.0 nM
[28] = target: NUAK family SNF1-like kinase 2 (Homo sapiens) (UniProt Q9H093); settings: Compound concentration 1000.0 nM
[29] = target: Serine/threonine-protein kinase TNNI3K (Homo sapiens) (UniProt Q59H18); settings: Compound concentration 1000.0 nM
[30] = target: Wee1-like protein kinase 2 (Homo sapiens) (UniProt P0C1S8); settings: Compound concentration 1000.0 nM
[31] = target: Kappa-type opioid receptor (Homo sapiens) (UniProt P41145); settings: Compound concentration 10.0 uM
[32] = target: Alpha-2A adrenergic receptor (Homo sapiens) (UniProt P08913); settings: Compound concentration 10.0 uM
[33] = target: T1, Fatty acid synthase; test: Inhibition of [14C]acetate incorporation into human H1975 cells; format: cell-based, NCI-H1975
[34] = target: Adenosine receptor A2a (Homo sapiens) (UniProt P29274); test: A2A/HU Eurofins-Panlabs selectivity data (BI); settings: Compound concentration 10.0 uM
[35] = target: Alpha-2A adrenergic receptor (Homo sapiens) (UniProt P08913); test: ALPHA2A/H Eurofins-Panlabs selectivity data (BI); settings: Compound concentration 10.0 uM
[36] = target: Beta-1 adrenergic receptor (Homo sapiens) (UniProt P08588); test: BETA1/HU Eurofins-Panlabs selectivity data (BI); settings: Compound concentration 10.0 uM
[37] = target: D(2) dopamine receptor (Homo sapiens) (UniProt P14416); test: D2S/HU Eurofins-Panlabs selectivity data (BI); settings: Compound concentration 10.0 uM
[38] = target: Prostaglandin E2 receptor EP4 subtype (Homo sapiens) (UniProt P35408); test: EP4/H Eurofins-Panlabs selectivity data (BI); settings: Compound concentration 10.0 uM
[39] = target: Gamma-aminobutyric acid receptor subunit alpha-1 (Rattus norvegicus) (UniProt P62813); test: GABAA MUSCIMOL CENT Eurofins-Panlabs selectivity data (BI); settings: Compound concentration 10.0 uM
[40] = target: Pyroglutamylated RF-amide peptide receptor (Homo sapiens) (UniProt Q96P65); test: GPR103 Eurofins-Panlabs selectivity data (BI); settings: Compound concentration 10.0 uM
[41] = target: ATP-sensitive inward rectifier potassium channel 1 isoform X1 (Mesocricetus auratus) (UniProt A0A1U8CU73); test: K+/KATP/HA Eurofins-Panlabs selectivity data (BI); settings: Compound concentration 10.0 uM
[42] = target: Muscarinic acetylcholine receptor M3 (Homo sapiens) (UniProt P20309); test: M3/HU Eurofins-Panlabs selectivity data (BI); settings: Compound concentration 10.0 uM
[43] = target: Mu-type opioid receptor (Homo sapiens) (UniProt P35372); test: MU/HU Eurofins-Panlabs selectivity data (BI); settings: Compound concentration 10.0 uM
[44] = target: Nicotinic acetylcholine receptor alpha-1/beta-1 (Homo sapiens) (UniProt P02708+P11230); test: NACH_BS_N/H Eurofins-Panlabs selectivity data (BI); format: protein-complex assay; settings: Compound concentration 10.0 uM
[45] = target: Protein kinase C alpha type (Mus musculus) (UniProt P20444); test: PHORBOLE/M Eurofins-Panlabs selectivity data (BI); settings: Compound concentration 10.0 uM
[46] = target: 5-hydroxytryptamine receptor 7 (Homo sapiens) (UniProt P34969); settings: Compound concentration 10.0 uM

Chain of Serine/threonine-protein kinase Nek6 (Homo sapiens) (Q9HC98 whole entry): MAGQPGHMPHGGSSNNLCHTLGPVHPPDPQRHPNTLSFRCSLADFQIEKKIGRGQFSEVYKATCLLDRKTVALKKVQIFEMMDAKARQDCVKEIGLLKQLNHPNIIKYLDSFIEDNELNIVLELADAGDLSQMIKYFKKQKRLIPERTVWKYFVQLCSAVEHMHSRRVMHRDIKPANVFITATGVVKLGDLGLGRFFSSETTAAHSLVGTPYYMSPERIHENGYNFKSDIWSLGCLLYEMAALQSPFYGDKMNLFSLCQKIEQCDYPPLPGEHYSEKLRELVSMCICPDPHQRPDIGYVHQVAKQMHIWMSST
T1 sequence (P49327 whole entry): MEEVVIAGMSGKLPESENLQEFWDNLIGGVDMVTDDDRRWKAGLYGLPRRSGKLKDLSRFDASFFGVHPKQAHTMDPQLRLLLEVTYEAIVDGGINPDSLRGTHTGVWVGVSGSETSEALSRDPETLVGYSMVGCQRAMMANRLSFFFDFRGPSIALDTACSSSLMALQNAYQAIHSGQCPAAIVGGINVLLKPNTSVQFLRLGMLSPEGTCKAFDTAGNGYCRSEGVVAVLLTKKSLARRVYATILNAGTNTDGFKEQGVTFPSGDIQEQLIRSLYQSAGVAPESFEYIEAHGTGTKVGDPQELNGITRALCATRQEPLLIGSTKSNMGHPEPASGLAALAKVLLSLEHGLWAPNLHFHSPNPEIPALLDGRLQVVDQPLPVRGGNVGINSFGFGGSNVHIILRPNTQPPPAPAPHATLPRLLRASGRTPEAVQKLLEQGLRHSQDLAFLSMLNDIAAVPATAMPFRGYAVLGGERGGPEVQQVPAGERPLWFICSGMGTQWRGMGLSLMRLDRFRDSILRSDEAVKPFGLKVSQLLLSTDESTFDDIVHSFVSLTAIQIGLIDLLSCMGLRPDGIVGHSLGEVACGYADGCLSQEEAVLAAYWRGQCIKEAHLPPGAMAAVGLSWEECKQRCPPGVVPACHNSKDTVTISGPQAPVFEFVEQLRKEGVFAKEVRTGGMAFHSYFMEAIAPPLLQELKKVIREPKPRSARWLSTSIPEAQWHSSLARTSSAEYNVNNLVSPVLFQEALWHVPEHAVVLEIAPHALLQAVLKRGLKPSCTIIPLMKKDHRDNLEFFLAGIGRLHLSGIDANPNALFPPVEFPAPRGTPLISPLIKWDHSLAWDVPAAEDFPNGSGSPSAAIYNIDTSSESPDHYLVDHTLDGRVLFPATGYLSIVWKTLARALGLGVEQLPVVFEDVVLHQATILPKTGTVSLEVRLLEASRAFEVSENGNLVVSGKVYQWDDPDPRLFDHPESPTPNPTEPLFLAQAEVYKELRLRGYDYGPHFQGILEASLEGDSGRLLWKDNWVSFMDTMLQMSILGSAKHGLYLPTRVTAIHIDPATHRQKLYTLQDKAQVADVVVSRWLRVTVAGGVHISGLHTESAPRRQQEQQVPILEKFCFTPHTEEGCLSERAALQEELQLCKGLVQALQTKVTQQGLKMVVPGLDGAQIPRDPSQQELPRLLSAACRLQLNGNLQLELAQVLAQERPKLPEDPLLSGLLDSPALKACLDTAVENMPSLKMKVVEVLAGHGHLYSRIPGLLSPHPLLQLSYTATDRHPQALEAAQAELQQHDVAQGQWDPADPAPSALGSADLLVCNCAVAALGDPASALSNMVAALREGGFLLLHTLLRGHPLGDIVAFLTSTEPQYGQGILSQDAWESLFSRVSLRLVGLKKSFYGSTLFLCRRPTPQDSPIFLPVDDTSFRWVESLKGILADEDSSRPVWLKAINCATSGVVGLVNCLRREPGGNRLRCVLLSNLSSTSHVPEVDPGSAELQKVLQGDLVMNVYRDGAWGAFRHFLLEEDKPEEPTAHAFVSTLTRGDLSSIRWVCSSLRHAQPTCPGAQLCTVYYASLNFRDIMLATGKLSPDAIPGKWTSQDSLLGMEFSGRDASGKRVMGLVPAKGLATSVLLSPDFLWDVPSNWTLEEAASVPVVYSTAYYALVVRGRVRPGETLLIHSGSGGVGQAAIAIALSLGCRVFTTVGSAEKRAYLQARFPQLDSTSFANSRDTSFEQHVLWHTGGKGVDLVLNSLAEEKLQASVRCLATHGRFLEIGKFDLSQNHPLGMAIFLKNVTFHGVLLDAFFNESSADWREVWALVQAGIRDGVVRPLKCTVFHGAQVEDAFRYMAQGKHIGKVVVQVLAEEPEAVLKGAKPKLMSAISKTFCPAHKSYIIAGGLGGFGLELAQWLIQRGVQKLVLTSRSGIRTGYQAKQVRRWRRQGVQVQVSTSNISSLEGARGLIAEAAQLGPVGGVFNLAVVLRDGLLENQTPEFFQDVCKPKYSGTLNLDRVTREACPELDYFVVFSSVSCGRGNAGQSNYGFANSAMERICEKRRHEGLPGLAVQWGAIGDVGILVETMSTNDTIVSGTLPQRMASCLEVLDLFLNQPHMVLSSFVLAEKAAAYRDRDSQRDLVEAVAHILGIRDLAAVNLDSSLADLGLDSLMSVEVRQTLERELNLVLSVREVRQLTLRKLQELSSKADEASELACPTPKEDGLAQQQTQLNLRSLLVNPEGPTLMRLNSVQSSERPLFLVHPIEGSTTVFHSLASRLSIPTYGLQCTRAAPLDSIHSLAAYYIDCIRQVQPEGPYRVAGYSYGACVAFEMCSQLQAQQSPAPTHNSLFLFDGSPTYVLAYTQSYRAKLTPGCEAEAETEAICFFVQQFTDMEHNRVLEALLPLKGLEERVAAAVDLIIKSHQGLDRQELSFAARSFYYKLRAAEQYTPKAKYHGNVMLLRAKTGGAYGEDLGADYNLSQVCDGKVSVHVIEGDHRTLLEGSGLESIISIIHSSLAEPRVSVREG
Chain of Alpha-2A adrenergic receptor (Homo sapiens) (P08913 whole entry): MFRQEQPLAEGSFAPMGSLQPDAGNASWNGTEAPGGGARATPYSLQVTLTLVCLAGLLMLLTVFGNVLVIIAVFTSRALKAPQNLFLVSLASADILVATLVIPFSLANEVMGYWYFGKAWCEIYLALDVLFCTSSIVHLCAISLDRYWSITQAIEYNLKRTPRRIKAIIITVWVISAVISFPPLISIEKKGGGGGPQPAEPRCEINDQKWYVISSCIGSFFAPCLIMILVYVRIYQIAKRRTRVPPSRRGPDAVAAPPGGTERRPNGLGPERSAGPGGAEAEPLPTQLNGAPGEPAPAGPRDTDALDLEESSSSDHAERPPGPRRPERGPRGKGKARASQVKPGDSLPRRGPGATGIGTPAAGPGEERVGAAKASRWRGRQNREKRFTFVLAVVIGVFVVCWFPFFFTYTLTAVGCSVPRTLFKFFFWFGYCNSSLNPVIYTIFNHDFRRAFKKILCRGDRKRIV
Chain of Serine/threonine-protein kinase TNNI3K (Homo sapiens) (Q59H18 whole entry): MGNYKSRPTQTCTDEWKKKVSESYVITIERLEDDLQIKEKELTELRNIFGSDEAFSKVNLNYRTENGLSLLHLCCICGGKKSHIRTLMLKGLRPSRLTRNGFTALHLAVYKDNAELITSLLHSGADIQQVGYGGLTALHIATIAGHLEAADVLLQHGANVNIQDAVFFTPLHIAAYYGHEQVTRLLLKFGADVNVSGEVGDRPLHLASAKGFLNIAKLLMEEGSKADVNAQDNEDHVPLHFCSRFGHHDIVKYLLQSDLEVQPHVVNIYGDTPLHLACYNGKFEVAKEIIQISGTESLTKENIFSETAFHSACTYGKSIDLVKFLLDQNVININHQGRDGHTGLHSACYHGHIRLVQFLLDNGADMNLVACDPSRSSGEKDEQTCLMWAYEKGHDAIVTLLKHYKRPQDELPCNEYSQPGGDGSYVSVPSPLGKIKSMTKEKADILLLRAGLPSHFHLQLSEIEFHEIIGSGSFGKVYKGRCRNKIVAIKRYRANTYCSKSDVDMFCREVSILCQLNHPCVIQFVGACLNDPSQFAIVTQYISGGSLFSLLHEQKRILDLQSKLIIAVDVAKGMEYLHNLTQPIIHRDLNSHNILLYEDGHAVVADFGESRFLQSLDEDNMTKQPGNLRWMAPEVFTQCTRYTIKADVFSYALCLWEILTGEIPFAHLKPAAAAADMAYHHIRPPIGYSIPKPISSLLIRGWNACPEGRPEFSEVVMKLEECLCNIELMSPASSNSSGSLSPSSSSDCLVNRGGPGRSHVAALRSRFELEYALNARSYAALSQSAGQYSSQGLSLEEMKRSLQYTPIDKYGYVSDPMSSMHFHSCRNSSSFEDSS
Chain of Dual specificity tyrosine-phosphorylation-regulated kinase 2 (Homo sapiens) (Q92630 whole entry): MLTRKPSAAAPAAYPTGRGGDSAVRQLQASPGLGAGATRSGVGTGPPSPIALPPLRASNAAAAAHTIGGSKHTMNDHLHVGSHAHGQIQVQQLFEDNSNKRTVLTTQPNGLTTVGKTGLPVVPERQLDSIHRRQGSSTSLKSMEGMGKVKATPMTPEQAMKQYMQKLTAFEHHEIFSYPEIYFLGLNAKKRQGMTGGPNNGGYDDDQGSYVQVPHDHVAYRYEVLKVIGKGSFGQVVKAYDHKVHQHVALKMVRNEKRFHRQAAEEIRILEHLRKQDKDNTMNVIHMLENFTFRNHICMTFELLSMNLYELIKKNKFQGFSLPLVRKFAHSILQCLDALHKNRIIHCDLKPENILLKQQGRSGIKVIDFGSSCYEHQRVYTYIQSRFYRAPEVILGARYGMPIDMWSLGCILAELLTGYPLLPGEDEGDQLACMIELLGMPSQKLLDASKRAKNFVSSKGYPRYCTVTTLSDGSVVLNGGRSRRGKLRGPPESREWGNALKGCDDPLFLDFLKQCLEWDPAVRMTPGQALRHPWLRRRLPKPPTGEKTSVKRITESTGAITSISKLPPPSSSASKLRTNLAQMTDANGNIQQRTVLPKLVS
Chain of Death-associated protein kinase 2 (Homo sapiens) (Q9UIK4 whole entry, looked up): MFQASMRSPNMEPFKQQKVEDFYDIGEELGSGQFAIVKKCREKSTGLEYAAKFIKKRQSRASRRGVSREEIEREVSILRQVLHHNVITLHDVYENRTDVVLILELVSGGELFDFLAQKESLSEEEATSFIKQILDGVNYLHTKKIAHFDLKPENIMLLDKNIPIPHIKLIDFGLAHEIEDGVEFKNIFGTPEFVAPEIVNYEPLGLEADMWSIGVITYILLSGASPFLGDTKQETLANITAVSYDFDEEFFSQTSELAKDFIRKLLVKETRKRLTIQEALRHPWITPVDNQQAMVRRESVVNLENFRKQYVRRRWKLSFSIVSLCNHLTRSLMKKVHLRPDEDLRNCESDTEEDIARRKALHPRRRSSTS

| Structure (SMILES) | residual activity [3] [%] | residual activity [7] [%] | residual activity [8] [%] | residual activity [9] [%] | residual activity [11] [%] | residual activity [12] [%] | residual activity [13] [%] | residual activity [14] [%] | residual activity [15] [%] | residual activity [16] [%] | residual activity [18] [%] | residual activity [20] [%] | residual activity [21] [%] | residual activity [22] [%] | residual activity [23] [%] | residual activity [24] [%] | residual activity [26] [%] | residual activity [29] [%] | residual activity [30] [%] | inhibition [31] [%] | also measured |
| --- | --- | --- | --- | --- | --- | --- | --- | --- | --- | --- | --- | --- | --- | --- | --- | --- | --- | --- | --- | --- | --- |
| CCC(=O)N[C@@H]1CC[C@H](C(=O)N(C)c2ccc(-c3nc4ccccc4o3)cc2)C1 [BI 99990] | 100 | 100 | 100 | 100 | 100 | 100 | 100 | 82 | 100 | 54 | 93 | 99 | 99 | 99 | 100 | 95 | 84 | 99 | 100 | 20.4 | Ki [1]: 1630 nM; IC50 [2]: > 3000 nM (not active); residual activity [4]: 87%; residual activity [5]: 95%; residual activity [6]: 100%; residual activity [10]: 83%; residual activity [17]: 96%; residual activity [19]: 100%; residual activity [25]: 75%; residual activity [27]: 88%; residual activity [28]: 100%; inhibition [32]: 11.2% |
| CCC(=O)N[C@H]1CC[C@@H](C(=O)N(C)c2ccc(-c3nc4ccccc4o3)cc2)C1 [BI 99179] | 75 | 77 | 92 | 94 | 100 | 91 | 87 | 100 | 100 | 100 | 100 | 92 | 85 | 88 | 100 | 96 | 82 | 100 | 96 | -6.54 | IC50 [33]: 180 nM (active); residual activity [34]: 90%; residual activity [35]: 98%; residual activity [36]: 96%; residual activity [37]: 95%; residual activity [38]: 91%; residual activity [39]: 96%; residual activity [40]: 101%; residual activity [41]: 88%; residual activity [42]: 106%; residual activity [43]: 100%; residual activity [44]: 91%; residual activity [45]: 94%; inhibition [46]: -6.53% |
